{"source": "patent US10266806B2", "about": "“Stem cell-derived hepatocytes in co-culture and uses thereof” (Colorado State University Research Foundation, priority 2014, dated 2019)", "key": {"[1]": {"settings": "cited from earlier work"}, "iMPCCs": {"test_system": "iMPCCs", "assay": "Drug toxicity studies: iMPCCs treated for 8 days with multiple doses", "settings": "increasing doses"}, "iHeps in iMPCCs [2]": {"test_system": "iHeps in iMPCCs"}, "[3]": {"test_system": "primary human hepatocytes in MPCCs", "settings": "(ref 19); cited from earlier work"}, "[4]": {"settings": "negative number: withdrawn from the market; higher positive numbers: greater DILI concern; cited from earlier work"}, "iHeps in iMPCCs [5]": {"test_system": "iHeps in iMPCCs", "assay": "Drug toxicity screening in iMPCCs (albumin, ATP, urea; binary decision and TC50)"}, "CYP1A2": {"test_system": "CYP1A2", "assay": "CYP1A2 induction in iMPCCs (7-ethoxyresorufin O-dealkylation)", "type": "cell-based, human"}, "CYP3A4": {"test_system": "CYP3A4", "settings": "human"}, "CYP2C9 [6]": {"test_system": "CYP2C9", "settings": "rifampin 25 μM or phenobarbital 1 mM, 4 days"}, "CYP2C9 [7]": {"test_system": "CYP2C9", "settings": "rifampin 25 μM or phenobarbital 1 mM, 4 days", "remark": "listed apart in the source"}}, "note": "Entries after “also recorded” stand apart in the source; their conditions may differ. Where two headings read alike, the source gives them in different places."}
{"smiles": "COc1ccc2c(c1)[C@]13CCCC[C@@H]1[C@H](C2)N(C)CC3", "note": "[Dextromethorphan HBr]", "values": [{"measurement": "Cmax", "setting": "[1]; human, in vivo", "result": 0.028, "unit": "µM"}, {"measurement": "albumin production in iMPCCs", "setting": "iMPCCs", "result": "minimally affected"}, {"measurement": "urea production in iMPCCs", "setting": "iMPCCs", "result": "minimally affected"}]}
{"smiles": "NNC(=O)c1ccncc1", "note": "[Isoniazid]", "values": [{"measurement": "toxicity call in iMPCCs / iHeps", "setting": "iHeps in iMPCCs [2]", "result": "toxic"}, {"measurement": "Model predictions iCC (binary decision)", "setting": "iHeps in iCCs", "result": "−"}, {"measurement": "toxicity call in iCCs", "setting": "iHeps in iCCs", "result": "non-toxic"}, {"measurement": "TC50 in MPCCs Urea", "setting": "[3]", "result": 4.5796, "unit": "mM"}, {"measurement": "DILI Sev (DILI severity scores from the LTKB of the FDA)", "setting": "[4]", "result": 8}, {"measurement": "Cmax", "setting": "[1]; total human plasma concentration", "result": 76.6, "unit": "µM"}, {"measurement": "TC50 in MPCCs Albumin", "setting": "iHeps in iMPCCs [5]", "result": 6.6815, "unit": "mM"}]}
{"smiles": "COc1ccc2[nH]c([S+]([O-])Cc3ncc(C)c(OC)c3C)nc2c1", "note": "(centres unmarked) [omeprazole]", "values": [{"measurement": "induction of iMPCC CYP1A2 activity", "setting": "CYP1A2; 4 days", "result": "dose-dependent manner"}, {"measurement": "CYP1A2 fold induction in iMPCCs as % of values in PHH-MPCCs", "setting": "CYP1A2; same dose and duration", "result": "~70", "unit": "%"}]}
{"smiles": "CCC1(c2ccccc2)C(=O)NC(=O)NC1=O", "note": "[phenobarbital]", "values": [{"measurement": "fold induction of CYP3A4 transcripts in iMPCCs relative to PHH-MPCCs", "setting": "CYP3A4", "result": "60-130%"}, {"measurement": "induction in CYP3A4 functions in iMPCCs relative to PHH-MPCCs", "setting": "CYP3A4", "result": "44-79%"}, {"measurement": "CYP2C9 functional activity induction in iMPCCs", "setting": "CYP2C9 [6]", "result": "significant increases; also recorded: induced"}, {"measurement": "CYP2C9 gene expression induction in iMPCCs", "setting": "CYP2C9 [6]", "result": "inducible; also recorded: induced"}, {"measurement": "CYP2C9 induction response in iCCs", "setting": "CYP2C9 [7]", "result": "induced functional activity; also recorded: severely blunted"}]}
